The values that follow come from ChEMBL document CHEMBL1201862, “PubChem BioAssay data set” (2004).

For assay [1], the system named is CHO. Kind of assay: CHO cell viability loss, potency – luminescence, cytotoxicity control for TLR9-MyD88 binding inhibitor project, dose response (AID 588339).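 Note: CHO cells stably coexpressing TLR9 and MyD88 fusions from primary screen; compound exposure lasted 48 hours before viability readout.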 Type of assay: functional, cell-based, hamster. Particulars: Cricetulus griseus.
Assay [2] has as its target Beta Lactamase (Pseudomonas aeruginosa, UniProt Q932Y6). Kind of assay: BLA reporter interference, concentration series – BLA reporter cells, FRET fluorescence, artefact control for TLR9-MyD88 binding inhibitor project, dose response (AID 588341).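 Note: cell based assay in CHO-K1 cells stably expressing beta-lactamase.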 Type of assay: cell-based.
Assay [3] has as its target Trypsin (Sus scrofa, UniProt P00761). Kind of assay: trypsin protease activity blockade – biochemical, quenched peptide fluorescence, cherry-pick, selectivity assay for Rce1 protease inhibitor project, dose response (AID 488789).
In assay [4] the target is CAAX prenyl protease 1 (Saccharomyces cerevisiae S288c, UniProt P47154). Briefly: yeast CAAX protease Ste24 inhibition – biochemical, S. cerevisiae, plate reader, cherry-pick, dose response (AID 488815).
Assay [5] has as its target CAAX prenyl protease 2 (Homo sapiens, UniProt Q9Y256). Kind of assay: inhibition of Ras-converting CAAX protease Rce1 – biochemical, yeast membranes, quenched-peptide fluorescence, cherry-pick, dose response (AID 588849).
The target in assay [6] is Apoptotic protease-activating factor 1 (Homo sapiens, UniProt O14727). Type of assay: functional.
Assay [7] concerns H9c2. Briefly: cells. The format is functional, cell-based. Particulars: Rattus norvegicus, H9c2, Myocardium.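 Note: confirmatory concentration-response retest of ultra-high-throughput screening hits for modulation of myocardial damage; cell death induced by hydrogen peroxide oxidative stress; compound pretreatment for 60 min then peroxide exposure for 2 h; potency is for protecting the cells against peroxide damage rather than for killing them.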
Assay [8] deals with T1, Rac GTPase-activating protein 1 (Homo sapiens, UniProt Q9H0H5).
T1 sequence (Q9H0H5 whole entry): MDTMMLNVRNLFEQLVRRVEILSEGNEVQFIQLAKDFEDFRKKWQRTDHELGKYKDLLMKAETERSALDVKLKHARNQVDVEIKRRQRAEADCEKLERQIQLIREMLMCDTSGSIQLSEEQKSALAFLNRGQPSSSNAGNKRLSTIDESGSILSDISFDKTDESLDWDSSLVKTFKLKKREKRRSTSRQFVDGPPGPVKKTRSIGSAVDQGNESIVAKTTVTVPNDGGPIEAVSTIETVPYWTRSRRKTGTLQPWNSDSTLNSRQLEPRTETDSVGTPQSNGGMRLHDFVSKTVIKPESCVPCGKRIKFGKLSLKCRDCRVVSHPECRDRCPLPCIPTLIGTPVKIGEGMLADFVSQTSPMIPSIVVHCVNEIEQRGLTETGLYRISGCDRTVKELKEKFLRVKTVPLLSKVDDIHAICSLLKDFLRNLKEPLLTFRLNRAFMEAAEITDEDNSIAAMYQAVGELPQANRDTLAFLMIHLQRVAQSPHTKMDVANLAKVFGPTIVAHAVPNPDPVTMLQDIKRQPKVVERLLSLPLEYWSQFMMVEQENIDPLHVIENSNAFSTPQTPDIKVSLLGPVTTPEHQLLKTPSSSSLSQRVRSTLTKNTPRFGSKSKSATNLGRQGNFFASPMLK
Briefly: blockers of MgcRacGAP-driven Rac1 GTP hydrolysis – biochemical, ADP Hunter fluorescence, primary and confirmatory, confirmation (AID 624330). Type of assay: functional.

Assay [9] deals with Beta-lactamase (Pseudomonas aeruginosa, UniProt Q79MP6).
In assay [10] the target is Beta-lactamase (Salmonella choleraesuis (strain SC-B67), UniProt Q5J463).
For assay [11], the target named is ORF 73 (Human herpesvirus 8, UniProt O40947). Kind of assay: KSHV LANA DNA-binding disruption – biochemical, fluorescence polarization, cherry-picked samples, dose response (AID 504725).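 Note: fluorescence polarization of a labeled DNA duplex reporting LANA DNA binding; potency is for inhibitors that block LANA binding to the DNA.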 Further details: species or system Human gammaherpesvirus 8. A general note: In fluorescence polarisation assays a small probe gives low polarisation when free and higher when bound to something large.

Assay [12] deals with UDP-galactopyranose mutase (Mycobacterium tuberculosis, UniProt P9WIQ1). Briefly: Inhibitors of Mycobacterium tuberculosis UDP-galactopyranose mutase (UGM) enzyme Measured in Biochemical System Using Plate Reader - 2105-02_Inhibitor_Dose_CherryPick_Activity. [Related pubchem assays (depositor defined):AID504439].
The target of assay [13] is Keap1/Nrf2 (Homo sapiens, UniProt Q14145). Kind of assay: disruptors of Keap1 binding to Nrf2 peptide – biochemical, fluorescence polarization, cherry-picked samples, dose response (AID 588683).
The nature of assay [14]: SFLLRN-induced P-Selectin Platelet Surface Expression Measured in Cell-Based System Using Flow Cytometry - 2016-03_Inhibitor_Dose_DryPowder_Activity_Set3. [Related pubchem assays (depositor defined):AID1678]. The format is functional. (Flow cytometry measures light scatter and fluorescence of single cells or particles in a stream.)
The nature of assay [15]: Luminescence Cell-Based Dose Response Follow up to Identify Inhibitors of Platelet Dense Granule Release. [Related pubchem assays (depositor defined):AID1663, AID1678, AID1889, AID2519]. The format is functional.
The target of assay [16] is T2, Mannose-6-phosphate isomerase (Homo sapiens, UniProt P34949).
T2 sequence (P34949 whole entry): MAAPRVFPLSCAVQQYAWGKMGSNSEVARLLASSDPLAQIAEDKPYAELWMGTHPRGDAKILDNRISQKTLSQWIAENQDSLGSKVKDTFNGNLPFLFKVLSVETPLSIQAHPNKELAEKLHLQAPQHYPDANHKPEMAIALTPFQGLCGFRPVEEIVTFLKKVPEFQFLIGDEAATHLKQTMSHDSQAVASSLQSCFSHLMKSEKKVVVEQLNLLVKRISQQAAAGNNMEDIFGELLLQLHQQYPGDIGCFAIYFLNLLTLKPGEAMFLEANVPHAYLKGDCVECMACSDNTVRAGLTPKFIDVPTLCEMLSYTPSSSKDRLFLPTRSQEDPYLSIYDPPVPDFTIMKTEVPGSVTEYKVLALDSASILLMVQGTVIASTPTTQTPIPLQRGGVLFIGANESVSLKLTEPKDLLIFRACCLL
Briefly: phosphomannose isomerase inhibition – biochemical, fluorescence intensity, confirmation (AID 1535).

The nature of assay [17]: restored growth of temperature-sensitive Burl-1 yeast – whole organism, S. cerevisiae, Burl-1 ts mutant, luminescence, counter-screen for SUMOylation pathway inhibitor project, dose response (AID 463199). Type of assay: functional. (Counterscreens check selectivity or assay interference.)
The nature of assay [18]: T. cruzi infection blockers in NIH3T3 cells – beta-gal luminescence, NIH3T3 host cells, confirmation (AID 2630). The conditions noted are these: Mus musculus. Type of assay: functional, cell-based.
In assay [19] the test system is Candida albicans. Kind of assay: resistant Candida growth with fluconazole co-treatment – CaCi-8 strain, Alamar Blue, dry powder, set 3, dose response (AID 488905). Type of assay: functional, organism-based.
Assay [20] relates to Candida albicans. Briefly: Candida growth inhibition combined with fluconazole – CaCi-2 strain, Alamar Blue, dry powder, set 3, dose response (AID 488907). Type of assay: functional, organism-based.
The subject of assay [21] is HEK293. Briefly: EBV LMP1 TES2 canonical NF-kB signalling blockers – cell-based, HEK293, luciferase, cherry-pick, dose response (AID 588343). Type of assay: functional. The conditions noted are these: Homo sapiens.
Assay [22] concerns the target T3, Short transient receptor potential channel 4 (Mus musculus, UniProt Q9QUQ5).
T3 sequence (Q9QUQ5 whole entry): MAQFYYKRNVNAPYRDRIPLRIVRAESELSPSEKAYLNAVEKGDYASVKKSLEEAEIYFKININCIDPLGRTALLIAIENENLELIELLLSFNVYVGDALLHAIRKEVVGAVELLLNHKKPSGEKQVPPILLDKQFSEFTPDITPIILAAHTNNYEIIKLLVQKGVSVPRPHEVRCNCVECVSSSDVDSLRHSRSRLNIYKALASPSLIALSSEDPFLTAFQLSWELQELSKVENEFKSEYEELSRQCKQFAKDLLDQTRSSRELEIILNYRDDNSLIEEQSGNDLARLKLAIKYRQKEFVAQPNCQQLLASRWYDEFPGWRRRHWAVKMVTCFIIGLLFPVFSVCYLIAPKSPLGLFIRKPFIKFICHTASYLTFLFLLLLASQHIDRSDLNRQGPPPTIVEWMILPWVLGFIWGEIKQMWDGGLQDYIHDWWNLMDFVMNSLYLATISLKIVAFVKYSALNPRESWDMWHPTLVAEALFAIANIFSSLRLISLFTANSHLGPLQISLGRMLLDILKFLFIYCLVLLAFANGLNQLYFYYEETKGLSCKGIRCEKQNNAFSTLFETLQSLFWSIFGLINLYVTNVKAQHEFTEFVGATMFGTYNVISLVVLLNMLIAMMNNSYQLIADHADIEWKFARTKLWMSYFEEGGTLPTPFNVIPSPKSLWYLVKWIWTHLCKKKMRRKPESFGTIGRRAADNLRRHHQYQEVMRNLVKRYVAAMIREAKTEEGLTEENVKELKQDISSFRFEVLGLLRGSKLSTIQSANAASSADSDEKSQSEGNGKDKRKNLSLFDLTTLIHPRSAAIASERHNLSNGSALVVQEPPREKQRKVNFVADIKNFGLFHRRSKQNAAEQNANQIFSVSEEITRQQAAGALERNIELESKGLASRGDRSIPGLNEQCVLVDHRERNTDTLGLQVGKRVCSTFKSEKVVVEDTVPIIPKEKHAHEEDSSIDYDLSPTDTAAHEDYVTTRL
Kind of assay: block of DAMGO-driven TRPC4 calcium entry – cell-based, HEK293 TRPC4/mu-opioid, Fluo-4 calcium, dose response (AID 434942).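 Note: potency of inhibitors blocking the TRPC4 calcium response.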 The format is functional.

The target of assay [23] is Beta-2 adrenergic receptor (Homo sapiens, UniProt P07550). Briefly: ADRB2 activation measured by internalization – cell-based, FAP fluorogen, flow cytometry, cherry pick 1, dose response (AID 588763). The format is functional.

Each structure is given as a SMILES string. Activity calls are given as the source filed them.

Keap1/Nrf2, sequence (Q16236 whole entry): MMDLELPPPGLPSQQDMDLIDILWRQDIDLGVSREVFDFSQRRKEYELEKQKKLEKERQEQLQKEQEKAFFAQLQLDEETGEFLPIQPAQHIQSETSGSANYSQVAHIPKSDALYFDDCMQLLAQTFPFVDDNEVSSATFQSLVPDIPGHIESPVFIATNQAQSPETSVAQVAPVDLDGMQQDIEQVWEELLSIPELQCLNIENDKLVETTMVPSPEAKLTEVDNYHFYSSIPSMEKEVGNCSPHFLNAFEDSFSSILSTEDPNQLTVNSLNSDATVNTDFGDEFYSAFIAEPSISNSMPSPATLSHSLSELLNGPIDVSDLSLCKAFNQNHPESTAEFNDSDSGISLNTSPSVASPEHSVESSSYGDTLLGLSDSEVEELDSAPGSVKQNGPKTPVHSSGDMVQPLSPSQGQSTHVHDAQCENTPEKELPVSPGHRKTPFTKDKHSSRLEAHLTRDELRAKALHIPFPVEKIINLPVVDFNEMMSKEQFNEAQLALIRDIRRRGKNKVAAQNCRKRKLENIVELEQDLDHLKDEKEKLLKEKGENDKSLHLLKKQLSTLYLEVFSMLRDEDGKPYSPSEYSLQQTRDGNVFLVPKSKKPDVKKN
Keap1/Nrf2, sequence (Q14145 whole entry): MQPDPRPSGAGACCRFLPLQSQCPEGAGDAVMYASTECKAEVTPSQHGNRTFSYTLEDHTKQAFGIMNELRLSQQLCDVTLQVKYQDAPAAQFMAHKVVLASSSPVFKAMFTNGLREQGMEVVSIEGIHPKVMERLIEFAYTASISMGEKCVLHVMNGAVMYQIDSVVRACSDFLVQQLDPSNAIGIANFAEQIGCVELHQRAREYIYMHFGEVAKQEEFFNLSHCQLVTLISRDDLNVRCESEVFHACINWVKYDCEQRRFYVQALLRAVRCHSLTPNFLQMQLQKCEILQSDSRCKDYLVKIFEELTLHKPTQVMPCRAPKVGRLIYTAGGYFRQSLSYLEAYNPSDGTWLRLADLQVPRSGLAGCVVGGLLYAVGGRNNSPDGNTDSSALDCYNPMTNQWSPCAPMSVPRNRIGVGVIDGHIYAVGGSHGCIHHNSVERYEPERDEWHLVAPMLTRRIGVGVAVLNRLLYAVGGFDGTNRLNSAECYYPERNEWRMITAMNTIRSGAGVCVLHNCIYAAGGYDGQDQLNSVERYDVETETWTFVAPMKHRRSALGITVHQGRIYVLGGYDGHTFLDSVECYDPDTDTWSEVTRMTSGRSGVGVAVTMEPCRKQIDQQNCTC
CAAX prenyl protease 1, sequence (P47154 whole entry): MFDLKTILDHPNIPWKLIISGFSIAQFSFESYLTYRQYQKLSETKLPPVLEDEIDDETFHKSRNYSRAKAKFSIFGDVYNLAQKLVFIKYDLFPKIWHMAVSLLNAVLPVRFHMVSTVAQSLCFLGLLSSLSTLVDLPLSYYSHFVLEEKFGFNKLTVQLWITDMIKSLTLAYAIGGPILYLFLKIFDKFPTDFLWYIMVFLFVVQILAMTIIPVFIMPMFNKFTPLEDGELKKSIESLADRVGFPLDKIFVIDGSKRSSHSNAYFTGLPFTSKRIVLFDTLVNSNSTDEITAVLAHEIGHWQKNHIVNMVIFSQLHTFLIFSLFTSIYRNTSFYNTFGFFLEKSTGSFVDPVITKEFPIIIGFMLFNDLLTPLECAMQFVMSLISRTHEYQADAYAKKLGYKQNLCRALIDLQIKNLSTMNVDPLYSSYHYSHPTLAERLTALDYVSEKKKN
Trypsin, sequence (P00761 whole entry): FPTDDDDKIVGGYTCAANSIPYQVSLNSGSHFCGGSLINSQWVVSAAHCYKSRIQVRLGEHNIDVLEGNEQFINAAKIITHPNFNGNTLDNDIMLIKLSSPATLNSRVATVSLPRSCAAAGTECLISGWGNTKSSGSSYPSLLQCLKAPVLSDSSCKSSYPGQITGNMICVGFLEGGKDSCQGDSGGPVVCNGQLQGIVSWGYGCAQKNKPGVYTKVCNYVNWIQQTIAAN
CAAX prenyl protease 2, sequence (Q9Y256 whole entry): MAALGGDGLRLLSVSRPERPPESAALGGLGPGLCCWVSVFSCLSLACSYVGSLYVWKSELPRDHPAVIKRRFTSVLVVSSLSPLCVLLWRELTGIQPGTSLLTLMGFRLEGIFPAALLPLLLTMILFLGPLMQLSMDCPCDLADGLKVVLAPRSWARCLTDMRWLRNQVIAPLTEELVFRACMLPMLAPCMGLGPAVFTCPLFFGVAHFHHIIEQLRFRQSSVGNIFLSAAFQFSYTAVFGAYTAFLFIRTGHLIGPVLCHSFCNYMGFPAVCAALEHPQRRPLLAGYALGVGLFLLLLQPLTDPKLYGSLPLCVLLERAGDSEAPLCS
Beta Lactamase, sequence (Q932Y6 whole entry): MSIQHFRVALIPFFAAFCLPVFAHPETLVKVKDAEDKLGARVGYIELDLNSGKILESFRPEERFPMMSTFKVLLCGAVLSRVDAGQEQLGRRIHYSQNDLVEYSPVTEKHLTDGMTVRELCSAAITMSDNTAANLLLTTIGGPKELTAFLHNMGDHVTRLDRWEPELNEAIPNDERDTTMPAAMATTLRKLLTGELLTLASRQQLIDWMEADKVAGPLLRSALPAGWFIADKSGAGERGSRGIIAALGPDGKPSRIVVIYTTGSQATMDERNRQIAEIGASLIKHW
Beta-2 adrenergic receptor, sequence (P07550 whole entry): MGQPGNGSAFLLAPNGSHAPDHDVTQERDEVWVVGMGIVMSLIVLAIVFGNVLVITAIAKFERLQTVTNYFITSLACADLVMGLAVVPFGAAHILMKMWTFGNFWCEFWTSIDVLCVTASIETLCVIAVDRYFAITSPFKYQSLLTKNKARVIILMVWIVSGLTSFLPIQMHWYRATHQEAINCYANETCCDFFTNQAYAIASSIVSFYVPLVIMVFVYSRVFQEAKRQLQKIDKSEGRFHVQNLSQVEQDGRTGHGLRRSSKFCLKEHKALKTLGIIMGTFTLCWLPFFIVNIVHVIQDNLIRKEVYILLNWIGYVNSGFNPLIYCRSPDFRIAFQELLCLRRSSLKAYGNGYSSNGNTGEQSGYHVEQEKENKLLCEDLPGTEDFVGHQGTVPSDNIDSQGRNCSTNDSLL
Beta-lactamase (Salmonella choleraesuis (strain SC-B67), UniProt Q5J463), sequence (Q5J463 whole entry): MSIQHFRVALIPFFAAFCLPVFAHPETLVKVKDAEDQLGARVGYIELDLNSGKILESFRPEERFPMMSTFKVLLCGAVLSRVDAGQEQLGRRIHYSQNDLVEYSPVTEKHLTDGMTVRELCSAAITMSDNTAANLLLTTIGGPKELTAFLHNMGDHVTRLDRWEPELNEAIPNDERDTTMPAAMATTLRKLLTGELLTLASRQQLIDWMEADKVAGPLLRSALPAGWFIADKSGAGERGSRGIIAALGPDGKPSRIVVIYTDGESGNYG
UDP-galactopyranose mutase, sequence (P9WIQ1 whole entry): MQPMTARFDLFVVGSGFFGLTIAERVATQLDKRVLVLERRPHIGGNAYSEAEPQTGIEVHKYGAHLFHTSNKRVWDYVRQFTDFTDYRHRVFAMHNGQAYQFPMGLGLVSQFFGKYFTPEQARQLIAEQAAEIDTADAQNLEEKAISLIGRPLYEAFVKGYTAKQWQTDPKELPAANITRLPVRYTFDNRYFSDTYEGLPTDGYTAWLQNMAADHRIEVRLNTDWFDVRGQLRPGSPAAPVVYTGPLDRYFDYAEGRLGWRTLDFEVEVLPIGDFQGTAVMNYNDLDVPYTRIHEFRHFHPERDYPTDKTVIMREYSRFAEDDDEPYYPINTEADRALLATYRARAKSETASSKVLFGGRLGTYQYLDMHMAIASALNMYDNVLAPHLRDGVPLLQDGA
Apoptotic protease-activating factor 1, sequence (O14727 whole entry): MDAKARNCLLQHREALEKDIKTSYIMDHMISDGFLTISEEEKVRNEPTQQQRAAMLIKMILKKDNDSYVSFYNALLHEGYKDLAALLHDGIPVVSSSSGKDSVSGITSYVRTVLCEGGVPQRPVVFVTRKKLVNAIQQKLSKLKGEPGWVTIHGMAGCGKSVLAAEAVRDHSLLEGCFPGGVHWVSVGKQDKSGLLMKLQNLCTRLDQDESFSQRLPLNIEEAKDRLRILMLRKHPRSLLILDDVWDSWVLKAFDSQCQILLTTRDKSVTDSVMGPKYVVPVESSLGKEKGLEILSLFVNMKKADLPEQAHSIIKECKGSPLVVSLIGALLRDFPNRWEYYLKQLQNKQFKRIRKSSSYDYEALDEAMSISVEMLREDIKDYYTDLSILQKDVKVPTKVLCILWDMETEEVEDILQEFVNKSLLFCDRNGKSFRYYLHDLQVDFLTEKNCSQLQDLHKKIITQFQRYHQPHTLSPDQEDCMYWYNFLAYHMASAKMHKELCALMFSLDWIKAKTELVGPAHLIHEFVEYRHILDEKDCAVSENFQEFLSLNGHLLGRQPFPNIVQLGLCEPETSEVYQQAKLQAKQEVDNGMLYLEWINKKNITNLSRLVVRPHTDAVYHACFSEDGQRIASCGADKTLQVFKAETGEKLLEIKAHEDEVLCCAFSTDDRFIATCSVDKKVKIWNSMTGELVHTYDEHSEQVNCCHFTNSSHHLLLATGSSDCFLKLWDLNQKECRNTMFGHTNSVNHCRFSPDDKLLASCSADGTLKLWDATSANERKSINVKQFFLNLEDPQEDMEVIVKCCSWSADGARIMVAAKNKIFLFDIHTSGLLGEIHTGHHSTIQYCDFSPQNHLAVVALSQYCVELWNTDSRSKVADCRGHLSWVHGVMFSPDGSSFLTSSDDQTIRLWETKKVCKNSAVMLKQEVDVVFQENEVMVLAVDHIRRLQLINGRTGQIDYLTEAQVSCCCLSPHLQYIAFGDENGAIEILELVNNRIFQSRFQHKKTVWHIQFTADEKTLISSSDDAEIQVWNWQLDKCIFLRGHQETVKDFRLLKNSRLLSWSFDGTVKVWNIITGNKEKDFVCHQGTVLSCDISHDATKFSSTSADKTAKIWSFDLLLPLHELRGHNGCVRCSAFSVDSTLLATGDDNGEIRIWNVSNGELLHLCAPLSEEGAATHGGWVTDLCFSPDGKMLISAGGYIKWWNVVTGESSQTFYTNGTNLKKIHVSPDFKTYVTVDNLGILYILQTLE

A word on the IC50: it is the concentration that gives 50% inhibition. For `COc1ccccc1N1N=C(c2cccs2)CC1c1ccccc1` (stereo not drawn), the IC50 in assay [1] is > 49.7 µM (inactive); in [2], 3.62 µM (active).
What is called AC50 is the midpoint of the concentration-response curve, whichever way the signal moves. Regarding `COc1ccc(-n2c(N)c(C(=O)NCc3ccco3)c3nc4ccccc4nc32)c(OC)c1`, the concentration at half-maximal activity (AC50) was 2.87 µM (active) in [3], 5.18 µM (active) in [4] and 2.3 µM (active) in assay [5].
As for `COc1ccc(NCc2cc3cc(OC)ccc3nc2O)cc1`, the IC50 in [6] is 62.5 µM (active); in [7], > 79 µM (inactive); in [8], 89.3 µM (active).
On to `Nc1cccc(N2C(=O)c3cccc4c(N)ccc(c34)C2=O)c1`, for which the IC50 was 31 µM (inactive) in assay [9] and 16.8 µM (inactive) in assay [10]. Also, the results for the AC50 in assay [11], in assay [12] and in assay [13] were 6.98 µM (active), 3.13 µM (active) and 4.29 µM (active), respectively.
As a reminder, the EC50 is the concentration that produces a half-maximal response. `CC(=O)Nc1cccc(NC(=O)c2ccccc2Cl)c1`: the AC50 in assay [14] was 53.9 µM (active). Also, in assay [15], the concentration for a half-maximal effect (EC50) is 147 µM (active).
As for `O=c1c2ccccc2[nH]n1-c1ccccc1`, the IC50 in assay [16] is 44.9 µM (active).
For the compound `CSc1ccc(Cl)c(C(=O)Nc2ccc(N3CCOCC3)cc2)c1`, the half-maximal activity concentration (AC50) in assay [17] was 57.3 µM (active).
For the compound `Cn1cc(CN2CCCC(C(=O)c3ccc(C(C)(C)C)cc3)C2)cn1` (stereo not drawn), the EC50 in assay [18] was 1.25 µM (active).
Turning to `N#Cc1ccc(C(=O)N2CCN(c3ccccn3)CC2)cc1`, the AC50 is 128 µM (active) in [19] and 2.66 µM (active) in assay [20].
For `Brc1ccc2ncnc(NCc3ccccc3)c2c1`, the AC50 in assay [21] was 5.03 µM (active).
In the case of `Oc1ccccc1Nc1nc(NCc2ccco2)c2ccccc2n1`, the EC50 in [22] was 2.11 µM (active); in assay [23], 0.492 µM (active).
